Experimental data: paper PMC5045412, “Inhibition of pro-HGF activation by SRI31215, a novel approach to block oncogenic HGF/MET signaling” (Oncotarget, 2016)

Tests used:
Assay in all cases: Protease panel, FRET peptide substrate
Type in all cases: biochemical
HGFA = target: T1, HGFA (Homo sapiens, UniProt Q04756)
T1 construct: purchased R&D Systems
T1 sequence (Q04756 373-655): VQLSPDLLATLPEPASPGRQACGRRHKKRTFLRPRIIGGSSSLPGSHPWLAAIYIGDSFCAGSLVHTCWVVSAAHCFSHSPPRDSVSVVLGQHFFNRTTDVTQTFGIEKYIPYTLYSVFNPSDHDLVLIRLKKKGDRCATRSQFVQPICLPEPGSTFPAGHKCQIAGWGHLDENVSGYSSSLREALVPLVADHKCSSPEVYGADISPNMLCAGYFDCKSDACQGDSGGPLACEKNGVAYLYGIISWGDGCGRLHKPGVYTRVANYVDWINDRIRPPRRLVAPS
Protocol: (§1) The inhibitory activity of SRI 31215 was tested in a panel of six proteases, which included matriptase, hepsin, HGFA, trypsin, thrombin and coagulation factor Xa. All six enzymes were purchased from R&D Systems. The assay buffer used was 50 mM Tris, 20 mM NaCl, 0.01% Tween 20, pH 8.0. The substrate was a custom FRET peptide based on the pro-HGF cleavage sequence (H2N-(EEdans)GKQLRVVNGG(KDabcyl)-amide) pre- pared by New England Peptide. All measurements were made using an Aminco-Bowman Series 2 Luminescence Spectrometer.

matriptase = target: T2, matriptase (Homo sapiens, UniProt Q9Y5Y6)
T2 construct: purchased R&D Systems
T2 sequence (Q9Y5Y6 1-855): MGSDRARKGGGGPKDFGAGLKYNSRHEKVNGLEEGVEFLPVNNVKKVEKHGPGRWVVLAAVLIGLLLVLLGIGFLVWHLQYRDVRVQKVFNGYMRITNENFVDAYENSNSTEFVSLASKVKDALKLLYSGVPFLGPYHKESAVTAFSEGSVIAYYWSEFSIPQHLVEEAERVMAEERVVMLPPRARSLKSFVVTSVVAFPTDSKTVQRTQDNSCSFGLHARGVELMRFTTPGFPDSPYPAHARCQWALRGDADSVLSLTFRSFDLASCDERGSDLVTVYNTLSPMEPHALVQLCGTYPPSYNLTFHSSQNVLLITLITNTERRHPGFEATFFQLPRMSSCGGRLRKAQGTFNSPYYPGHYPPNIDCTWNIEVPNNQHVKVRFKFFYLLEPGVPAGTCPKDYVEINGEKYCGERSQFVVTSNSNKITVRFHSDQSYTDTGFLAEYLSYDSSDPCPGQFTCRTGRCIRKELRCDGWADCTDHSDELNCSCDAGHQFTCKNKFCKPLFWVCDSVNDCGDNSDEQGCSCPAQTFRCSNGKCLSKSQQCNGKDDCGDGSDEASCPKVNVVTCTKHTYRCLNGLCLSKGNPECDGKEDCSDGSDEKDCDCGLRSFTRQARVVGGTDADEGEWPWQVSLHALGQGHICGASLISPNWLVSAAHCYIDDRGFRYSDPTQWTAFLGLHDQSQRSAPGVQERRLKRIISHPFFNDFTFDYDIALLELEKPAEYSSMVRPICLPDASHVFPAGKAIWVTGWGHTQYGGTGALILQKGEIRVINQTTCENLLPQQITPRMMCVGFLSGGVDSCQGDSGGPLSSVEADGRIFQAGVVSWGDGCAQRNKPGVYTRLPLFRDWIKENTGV
Protocol: as §1

trypsin = test system: trypsin
Protocol: as §1

hepsin = target: T3, hepsin (Homo sapiens, UniProt P05981)
T3 construct: purchased R&D Systems
Protocol: as §1

thrombin = target: T4, thrombin (Homo sapiens, UniProt P00734)
T4 construct: purchased R&D Systems
Protocol: as §1

T3 sequence (P05981 whole entry): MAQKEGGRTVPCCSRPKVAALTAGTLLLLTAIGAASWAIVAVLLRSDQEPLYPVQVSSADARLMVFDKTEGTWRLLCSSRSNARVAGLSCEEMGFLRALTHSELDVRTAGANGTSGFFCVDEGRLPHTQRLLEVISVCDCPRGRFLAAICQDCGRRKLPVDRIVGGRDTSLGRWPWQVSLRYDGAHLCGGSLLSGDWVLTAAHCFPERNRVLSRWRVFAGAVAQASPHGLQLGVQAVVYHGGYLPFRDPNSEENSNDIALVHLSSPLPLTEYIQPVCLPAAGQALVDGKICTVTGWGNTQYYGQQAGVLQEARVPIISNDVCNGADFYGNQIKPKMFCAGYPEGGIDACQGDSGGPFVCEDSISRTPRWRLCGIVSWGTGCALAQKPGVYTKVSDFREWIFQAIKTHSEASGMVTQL

IC50 (HGFA): 300 nM
IC50 (matriptase): 690 nM
IC50 (hepsin): 650 nM
selectivity for thrombin (thrombin): acceptable
Compound: CC1CN(CC2CCN(Cc3ccccc3)CC2)C(=O)N(c2cccc(C(=N)N)c2)C1 (centres unmarked) [SRI 31215, 3-(3-((1-benzylpiperidin-4-yl)methyl)-5-methyl-2-oxotetrahydropyrimidin-1(2H)-yl)benzimidamide]
selectivity for trypsin (trypsin): acceptable
